In patent US11759462B2, “Spirocyclic compounds as tryptophan hydroxylase inhibitors” (priority 2013, dated 2023):
Where two headings read alike, the source gives them in different places.

Molecular target: T1, Recombinant human TPH1 (MBP tagged) (Homo sapiens, UniProt P17752)
T1 construct: cloning full length human TPH1 cDNA in to a bacterial pMAL-c5E expression vector; made in house; host or cells: E. coli BL21 (DE3)
T1 sequence (P17752 1-444): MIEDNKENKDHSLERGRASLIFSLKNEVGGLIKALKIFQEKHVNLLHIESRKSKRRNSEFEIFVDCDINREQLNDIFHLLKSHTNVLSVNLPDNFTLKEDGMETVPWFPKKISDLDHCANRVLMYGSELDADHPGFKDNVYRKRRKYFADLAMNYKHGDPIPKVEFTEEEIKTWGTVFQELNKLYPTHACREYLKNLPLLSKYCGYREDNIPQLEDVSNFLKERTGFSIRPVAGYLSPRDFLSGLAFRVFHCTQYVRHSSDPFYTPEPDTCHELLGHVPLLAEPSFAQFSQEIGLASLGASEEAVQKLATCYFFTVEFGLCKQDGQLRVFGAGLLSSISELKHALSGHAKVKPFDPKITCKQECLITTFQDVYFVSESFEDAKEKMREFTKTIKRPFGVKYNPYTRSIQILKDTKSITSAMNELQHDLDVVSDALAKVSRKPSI
Assay: TPH1 in vitro inhibition assay (kinetic fluorescence)
Assay type: biochemical
Method in brief: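 Final mix: 15 nM MBP-TPH1, 30 μM Trp, 36 μM 6-methyltetrahydropterin, 25 μM ferrous ammonium sulfate, 50 mM MES pH 7.1, 1% DMSO, room temperature.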

[1] = read-out: TPH1 Range (TPH1 inhibition IC50)
[2] = TPH1 Range (TPH1 inhibition IC50)

SMILES	IC50 [1]	IC50 [2]
Cc1ccn(-c2cc(-c3ccc(OCC(C)(C)C)cc3)ccc2[C@@H](Oc2cc(N3CCC4(CC3)CN[C@H](C(=O)O)C4)nc(N)n2)C(F)(F)F)n1 [Example 1cn, (S)-8-(2-amino-6-((R)-2,2,2-trifluoro-1-(3-(3-methyl-1H-pyrazol-1-yl)-4′-(neopentyloxy)-[1,1′-biphenyl]-4-yl)ethoxy)pyrimidin-4-yl)-2,8-diazaspiro[4.5]decane-3-carboxylic acid]	< 50 nM	
Cc1ccn(-c2cc(-c3ccc(Cl)c(F)c3)ccc2[C@@H](Oc2cc(N3CCC4(CC3)CN[C@H](C(=O)O)C4)nc(N)n2)C(F)(F)F)n1 [Example 1ao, (S)-8-(2-amino-6-((R)-1-(4′-chloro-3′-fluoro-3-(3-methyl-1H-pyrazol-1-yl)-[1,1′-biphenyl]-4-yl)-2,2,2-trifluoroethoxy)pyrimidin-4-yl)-2,8-diazaspiro[4.5]decane-3-carboxylic acid]	< 50 nM	
C/C=C/c1ccc([C@@H](Oc2cc(N3CCC4(CC3)CN[C@H](C(=O)O)C4)nc(N)n2)C(F)(F)F)c(-c2cccc(S(C)(=O)=O)c2)c1 [Example 53, (S)-8-(2-Amino-6-((R)-2,2,2-trifluoro-1-(3′-(methylsulfonyl)-5-((E)-prop-1-en-1-yl)-[1,1′-biphenyl]-2-yl)ethoxy)pyrimidin-4-yl)-2,8-diazaspiro[4.5]decane-3-carboxylic acid]	< 50 nM	
Nc1nc(O[C@H](c2ccc(Cl)cc2N2CCCC2=O)C(F)(F)F)cc(N2CCC3(CC2)CN[C@H](C(=O)O)C3)n1 [Example 33, (S)-8-(2-amino-6-((R)-1-(4-chloro-2-(2-oxopyrrolidin-1-yl)phenyl)-2,2,2-trifluoroethoxy)pyrimidin-4-yl)-2,8-diazaspiro[4.5]decane-3-carboxylic acid]	50 to 300 nM	
Cc1ccn(-c2cc(-c3ccc(C)c(C)c3)ccc2[C@H](Oc2cc(N3CCC4(CC3)CN[C@@H](C(=O)O)C4)nc(N)n2)C(F)(F)F)n1 [Example 54l, (R)-8-(2-amino-6-((S)-1-(3′,4′-dimethyl-3-(3-methyl-1H-pyrazol-1-yl)-[1,1′-biphenyl]-4-yl)-2,2,2-trifluoroethoxy)pyrimidin-4-yl)-2,8-diazaspiro[4.5]decane-3-carboxylic acid]		3000 to 10000 nM
CC(Oc1cc(N2CCC3(CC2)CN[C@H](C(=O)O)C3)nc(N)n1)C1C2CC3CC(C2)CC1C3 (stereo partly drawn) [Example 37, (3S)-8-(6-(1-((1r,3r,5S,7S)-adamantan-2-yl)ethoxy)-2-aminopyrimidin-4-yl)-2,8-diazaspiro[4.5]decane-3-carboxylic acid]	3000 to 10000 nM	
Cc1ccn(-c2cc(C(O)CO)ccc2[C@@H](Oc2cc(N3CCC4(CC3)CN[C@H](C(=O)O)C4)nc(N)n2)C(F)(F)F)n1 (stereo partly drawn) [Example 13, (3S)-8-(2-amino-6-((1R)-1-(4-(1,2-dihydroxyethyl)-2-(3-methyl-1H-pyrazol-1-yl)phenyl)-2,2,2-trifluoroethoxy)pyrimidin-4-yl)-2,8-diazaspiro[4.5]decane-3-carboxylic acid]	50 to 300 nM	
Nc1nc(O[C@H](c2ccc(Br)cc2)C(F)(F)F)cc(N2CCC3(CC2)CN[C@H](C(=O)O)C3)n1 [Example 59, (S)-8-(2-amino-6-((R)-1-(4-bromophenyl)-2,2,2-trifluoroethoxy)pyrimidin-4-yl)-2,8-diazaspiro[4.5]decane-3-carboxylic acid]	300 to 3000 nM	

Further lines, results first:

IC50 [1]	IC50 [2]	SMILES
50 to 300 nM		Nc1nc(O[C@H](c2ccc(-c3ccc4sncc4c3)cc2)C(F)(F)F)cc(N2CCC3(CC2)CN[C@H](C(=O)O)C3)n1 [Example 55j, (S)-8-(2-amino-6-((R)-1-(4-(benzo[d]isothiazol-5-yl)phenyl)-2,2,2-trifluoroethoxy)pyrimidin-4-yl)-2,8-diazaspiro[4.5]decane-3-carboxylic acid]
	300 to 3000 nM	CS(=O)(=O)c1ccc(-c2cc(Cl)ccc2[C@@H](Oc2cc(N3CCC4(CC3)CN[C@H](C(=O)O)C4)nc(N)n2)C(F)(F)F)cc1 [Example 34ad, (S)-8-(2-amino-6-((R)-1-(5-chloro-4′-(methylsulfonyl)-[1,1′-biphenyl]-2-yl)-2,2,2-trifluoroethoxy)pyrimidin-4-yl)-2,8-diazaspiro[4.5]decane-3-carboxylic acid]
300 to 3000 nM		Nc1nc(O[C@H](c2ccc(Cl)cc2-c2cc(C(F)(F)F)cc(C(F)(F)F)c2)C(F)(F)F)cc(N2CCC3(CC2)CN[C@H](C(=O)O)C3)n1 [Example 34bh, (S)-8-(2-amino-6-((R)-1-(5-chloro-3′,5′-bis(trifluoromethyl)-[1,1′-biphenyl]-2-yl)-2,2,2-trifluoroethoxy)pyrimidin-4-yl)-2,8-diazaspiro[4.5]decane-3-carboxylic acid]
50 to 300 nM		Nc1nc(O[C@H](c2ccc(Cl)cc2-c2cc(F)c(F)c(F)c2)C(F)(F)F)cc(N2CCC3(CC2)CN[C@H](C(=O)O)C3)n1 [Example 34bf, (S)-8-(2-amino-6-((R)-1-(5-chloro-3′,4′,5′-trifluoro-[1,1′-biphenyl]-2-yl)-2,2,2-trifluoroethoxy)pyrimidin-4-yl)-2,8-diazaspiro[4.5]decane-3-carboxylic acid]
50 to 300 nM		CCCOc1ccc(-c2ccc([C@@H](Oc3cc(N4CCC5(CC4)CN[C@H](C(=O)O)C5)nc(N)n3)C(F)(F)F)c(-c3ccccc3)c2)cc1F [Example 54e, (S)-8-(2-amino-6-((R)-2,2,2-trifluoro-1-(3-fluoro-4-propoxy-[1,1′:3′,1″-terphenyl]-4′-yl)ethoxy)pyrimidin-4-yl)-2,8-diazaspiro[4.5]decane-3-carboxylic acid]
50 to 300 nM		CCOC(=O)c1cccc(-c2ccc([C@@H](Oc3cc(N4CCC5(CC4)CN[C@H](C(=O)O)C5)nc(C)n3)C(F)(F)F)c(-n3ccc(C)n3)c2)c1 [Example 29e, (S)-8-(6-((R)-1-(3′-(ethoxycarbonyl)-3-(3-methyl-1H-pyrazol-1-yl)-[1,1′-biphenyl]-4-yl)-2,2,2-trifluoroethoxy)-2-methylpyrimidin-4-yl)-2,8-diazaspiro[4.5]decane-3-carboxylic acid]
< 50 nM		Nc1nc(O[C@H](c2ccc(Cl)cc2-n2ccc(C3CC3)n2)C(F)(F)F)cc(N2CCC3(CC2)CN[C@H](C(=O)O)C3)n1 [Example 10r, (S)-8-(2-amino-6-((R)-1-(4-chloro-2-(3-cyclopropyl-1H-pyrazol-1-yl)phenyl)-2,2,2-trifluoroethoxy)pyrimidin-4-yl)-2,8-diazaspiro[4.5]decane-3-carboxylic acid]
< 50 nM		Cc1ccn(-c2ccc(-c3ccccc3)cc2[C@@H](Oc2cc(N3CCC4(CC3)CN[C@H](C(=O)O)C4)nc(N)n2)C(F)(F)F)n1 [Example 19n, (S)-8-(2-amino-6-((R)-2,2,2-trifluoro-1-(4-(3-methyl-1H-pyrazol-1-yl)-[1,1′-biphenyl]-3-yl)ethoxy)pyrimidin-4-yl)-2,8-diazaspiro[4.5]decane-3-carboxylic acid]
	< 50 nM	N#Cc1cccc(-c2cc(Cl)ccc2[C@@H](Oc2cc(N3CCC4(CC3)CN[C@H](C(=O)O)C4)nc(N)n2)C(F)(F)F)c1 [Example 34x, (S)-8-(2-amino-6-((R)-1-(5-chloro-3′-cyano-[1,1′-biphenyl]-2-yl)-2,2,2-trifluoroethoxy)pyrimidin-4-yl)-2,8-diazaspiro[4.5]decane-3-carboxylic acid]
< 50 nM		COc1ccc(-c2ccc([C@@H](Oc3cc(N4CCC5(CC4)CN[C@H](C(=O)O)C5)nc(N)n3)C(F)(F)F)cc2)cc1OC [Example 55q, (S)-8-(2-amino-6-((R)-1-(3′,4′-dimethoxy-[1,1′-biphenyl]-4-yl)-2,2,2-trifluoroethoxy)pyrimidin-4-yl)-2,8-diazaspiro[4.5]decane-3-carboxylic acid]
50 to 300 nM		Nc1nc(O[C@H](c2ccc(Cl)cc2-c2cccc(C(=O)N3CCCC3)c2)C(F)(F)F)cc(N2CCC3(CC2)CN[C@H](C(=O)O)C3)n1 [Example 34ca, (S)-8-(2-amino-6-((R)-1-(5-chloro-3′-(pyrrolidine-1-carbonyl)-[1,1′-biphenyl]-2-yl)-2,2,2-trifluoroethoxy)pyrimidin-4-yl)-2,8-diazaspiro[4.5]decane-3-carboxylic acid]
50 to 300 nM		Nc1nc(O[C@H](c2ccc(Cl)cc2-c2ccc(F)cc2)C(F)(F)F)cc(N2CCC3(CC2)CN[C@H](C(=O)O)C3)n1 [Example 34bv, (S)-8-(2-amino-6-((R)-1-(5-chloro-4′-fluoro-[1,1′-biphenyl]-2-yl)-2,2,2-trifluoroethoxy)pyrimidin-4-yl)-2,8-diazaspiro[4.5]decane-3-carboxylic acid]
< 50 nM		Nc1nc(O[C@H](c2ccc(Cl)cc2-c2cccc(C(=O)N3CCNCC3)c2)C(F)(F)F)cc(N2CCC3(CC2)CN[C@H](C(=O)O)C3)n1 [Example 34cq, (S)-8-(2-amino-6-((R)-1-(5-chloro-3′-(piperazine-1-carbonyl)-[1,1′-biphenyl]-2-yl)-2,2,2-trifluoroethoxy)pyrimidin-4-yl)-2,8-diazaspiro[4.5]decane-3-carboxylic acid]
50 to 300 nM		Cc1ccn(-c2cc(C(=O)OC(C)(C(F)(F)F)C(F)(F)F)ccc2[C@@H](Oc2cc(N3CCC4(CC3)CN[C@H](C(=O)O)C4)nc(N)n2)C(F)(F)F)n1 [Example 18a, (S)-8-(2-amino-6-((R)-2,2,2-trifluoro-1-(4-(((1,1,1,3,3,3-hexafluoro-2-methylpropan-2-yl)oxy)carbonyl)-2-(3-methyl-1H-pyrazol-1-yl)phenyl)ethoxy)pyrimidin-4-yl)-2,8-diazaspiro[4.5]decane-3-carboxylic acid]
